From patent US6706754B2, “Reversed amidines and methods of using for treating, preventing, or inhibiting leishmaniasis” (The United States of America as represented by the …, priority 2000, dated 2004)

Legend:
[1] = tested on: L. donovani axenic amastigote-like parasites; experiment: Axenic amastigote assay (CellTiter 96 tetrazolium dye growth assay); assay type: cell-based; conditions: 72 hours, 37° C., pH 5.5, concentration that inhibited parasite growth by 50%
Description: The growth susceptibilities of L. donovani axenic amastigote-like parasites to the candidate compounds were measured in a three day assay using the tetrazolium dye-based CellTiter 96 Aqueous Non-Radioactive Cell Proliferation Assay Kit (Promega, Madison, Wis.) according to Werbovetz, K., et al. (1999) Mol. Biochem. Parasitol. 98:53-65, which is herein incorporated by reference. Pentamidine, at a starting concentration of 100 μM, and serial dilutions thereof were used as controls. Specifically, L. donovani axenic amastigotes, as described by Joshi, M. et al. (1993) Mol. Biochem. Parasitol. 58:345-354, which is herein incorporated by reference, were seeded at 10^6 cells/ml in 96-well flat-bottomed plates (Costar, Cambridge, Mass.) and maintained as axenic amastigote-like forms by serial passage at 37° C. in a humid atmosphere comprising 5% CO2 using a slightly modified potassium-based version of the medium described by Joshi, M. et al. (1993) in the presence or absence of a given candidate compound. The medium comprised 15 mM KCl, […] KH2PO4, 10 mM K2HPO4, 0.5 mM MgSO4, and 24 mM NaHCO3 to give a final potassium concentration of […]. The medium was supplemented with 20% fetal bovine serum and was brought to pH 5.5. The final volume in each well was 60 μl. The plates were incubated at 37° C. for 72 hours, then 12 μl of the aqueous CellTiter solution from the kit (Promega, Madison, Wis.) was added to each well according to the instructions of the manufacturer. The plates were returned to the incubator for about 2 to about 3 hours. Then the absorbance of each well was measured at 490 nm using a SpectraMax Plus microplate reader (Molecular Devices, Sunnyvale, Calif.).
The results for each candidate compound may be found in the FIG. 1. The IC50 values (the concentration of the agent that inhibited parasite growth by 50%) for each candidate compound were determined for axenic amastigotes with the aid of the program SoftMax Pro (Molecular Devices, Sunnyvale, Calif.) using the following dose response equation: y=((a−d)/1+(x/c)^b)+d, wherein x=drug concentration; y=absorbance at 490 nm; a=upper asymptote; b=slope; c=IC50; and d=lower asymptote. FIG. 2 is the graphical data obtained for compound 1DWB667 as an example.

L. donovani L82 = experiment: In vivo assay, murine visceral model of leishmaniasis; set-up: species or system Leishmania donovani; conditions: Table 4; BALB/c mice; 15 μmol/kg i.v. × 5

| Substance | Axenic Amastigote IC50 L. donovani [1] [µg/mL] | Axenic Amastigote IC50 L. donovani ([1]; listed as DB702) | Axenic Amastigote IC50 L. donovani ([1]; listed as DB709) | Axenic Amastigote IC50 L. donovani ([1]; listed as DB710) | % inhibition ± S.E.M. (L. donovani L82) [%] |
| --- | --- | --- | --- | --- | --- |
| 2,5-Bis[2-methyl-4-(2-pyridylimino)aminophenyl]furan [DB 702] | 0.174 | about 0.2 μg/ml | – | – | – |
| 2,5-Bis[2-methoxy-4-(2-pyridylimino)aminophenyl]furan [DB 709] | 0.157 | – | about 0.2 μg/ml | – | – |
| 2,5-Bis[4-(2-pyridylimino)aminophenyl]furan [1DWB 667] | 0.550 | – | – | – | – |
| 2,5-Bis[2-methyl-4-(5-methyl-2-pyridylimino)aminophenyl]furan [DB 710] | 0.242 | – | – | about 0.2 μg/ml | – |
| 2,5-Bis[2-chloro-4-(2-pyridylimino)aminophenyl]furan [DB 712] | 0.308 | – | – | – | 15.33 ± 2.7 |
